Laboratory results published in patent publication US20220031690A1, “ANTI-NEURODEGENERATIVE DISEASE AGENT” (Hayashibara Co., Ltd., priority 2018, published 2022).

Tests used:
[1] = DPPH radical scavenging ability (absorbance method); type: biochemical; details: ethanol, room temperature, 2 hours, absorbance at 490 nm
Source text: 2,2-Diphenyl-1-picrylhydrazyl (hereinafter referred to as “DPPH”) is a radical with an unpaired electron and has the oxidizing ability of other substances. In addition, because it is stable and easy to handle, it is widely used as an artificial radical-like substance for measuring the antioxidant ability of antioxidants. When DPPH reacts with a substance having antioxidant ability, it loses its own oxidizing ability and its color changes from deep purple to […].
DPPH (commercialized by Tokyo Kasei Kogyo Co., Ltd., Tokyo, Japan) was dissolved in ethanol to prepare a 167 μM DPPH ethanol solution, and 90 μl of the solution was added to each well of the 96-well microplate. A 60 μl each of the test compound serially diluted with ethanol was added to the DPPH ethanol solution, and the mixture was reacted at room temperature for 2 hours, and then the absorbance at 490 nm was measured. […] From those value, the 50% inhibitory concentration of the DPPH radical (Hereinafter, it is referred to as “IC50”) was calculated.

PC12-HS cells [2] = assay: Evaluation method A: neurocyte growth acceleration activity (Alamar blue); type: cell-based, rat; details: for Cell proliferation rate (%): negative control = 100%; for neurocyte growth acceleration activity (in words): 40, 200 and 1,000 nM, comment on Table 2
Source text: (§1) As a model of the nerve cell, the NGF (nerve growth factor) highly sensitive strain of PC12 cell derived from the rat adrenal pheochromocytoma (hereinafter referred to as “PC12-HS cell”; JCRB cell bank, National Research and Development Institute of Health and Nutrition), which has been widely used as a suitable model for research on human neurodegenerative disease, was used. As the test compound, […] of trimethine cyanine dye compounds; NK-5 (Chemical formula 2), NK-36 (Chemical formula 3), NK-44 (Chemical formula 5) and dye compounds represented by Chemical formulae 12 to 18, and NK-6 (Chemical formula 7), which is a monomethine cyanine dye, were selected. In addition, two kinds of ethylene cross-linked dyes (Chemical formulae 19 and 20), 15 kinds of monomethine cyanine dyes (Chemical formulae 21 to 35), and seven kinds of trimethine cyanine dyes (Chemical formulae 36 to 42), which were expected to have a good neurocyte growth acceleration activity and/or neurite-outgrowth promoting activity in the screening disclosed in Patent literature 6, were also re-evaluated for comparison. The Chemical formulae 12 to 42 are shown below.
(§2) The cyanine dye compounds subjected to the test (purity 97% by mass or more, synthesized by Hayashibara Co., Ltd., Okayama, Japan) were individually dissolved in DMSO (product number “D8418”, commercialized by SIGMA Corporation) at a concentration of 5 mg/ml, and the solutions were then filtered through DMSO-resistant membrane (“Millex-LGS LLG025SS”, commercialized by Millipore Corporation) and stored at 25° C. in a dark condition. At the time of use, they were further diluted with Dulbecco's Medium (hereinafter, abbreviated as “D-MEM medium”, commercialized by Nissui Pharmaceutical Co., Ltd.) supplemented by 10% by volume of fetal bovine serum (FBS), and subjected to the test.
PC12-HS cells were subjected to tests after frozen stock cultured cells were thawed and cultured with a D-MEM medium supplemented with 10% by volume of FBS (Hereinafter, when the term “culture” is simply used, it means that the cells are statically cultured in an incubator controlled at 37° C. under 5% by volume of CO2 conditions). Cells used in the test were collected using 0.25% by weight of trypsin solution, then diluted with a D-MEM medium supplemented with 10% by volume of FBS (hereinafter referred to as “culture medium”), seeded into collagen-coated 96-well plates (commercialized by Falcon, Tokyo, Japan, “Microtest Plate, Cell Culture, Flat Bottom”) to obtain 5×10^3 cells/100 μl/well, and cultured for 24 hours (hereinafter referred to as “pre-culture”). Then, the above test samples were diluted with a culture medium, and 100 μl of diluted solution of the test compounds were added to each well so that the final concentration of the test compounds in the wells became 50 ng/ml, and the cells were cultured for another three days. On day 3, the cultures supernatant was removed from each well, 200 μl of culture medium containing 10% by volume of Alamar blue reagents (commercialized by Trek Diagnostic Systems Inc., Ohio, USA) were added to each well, and the cells were cultured for 6 hours. After culturing for 6 hours, the cells were measured for fluorescent intensity at a wavelength of 544-590 nm by “FlexStation 3”, a product name of a fluorescent plate reader (commercialized by Japan Molecular Devices Corporation, Tokyo, Japan). […] Measurements were performed for each test compound in triplicate, and the mean values were shown.
The method was based on Experiment 1-1, except the concentrations of the test compounds were set to three doses of 40 nM, 200 nM and 1,000 nM for evaluation method A (neurocyte growth accelerating effect), and two doses of 200 nM and 1,000 nM for evaluation method B (neurite outgrowth promoting effect). […]

PC12-HS cells [3] = assay: Evaluation method B: neurite-outgrowth promoting activity in the presence of NGF; type: cell-based, rat; details: for Action on PC12-HS neurite-outgrowth promotion (500 ng/ml) / Neurite-outgrowth rate (%): NGF 10 ng/ml; for Action on PC12-HS neurite-outgrowth promotion (500 ng/ml): 3 days, class of neurite-outgrowth rate
Source text: as §1, §2
As in the case of evaluation of neurocyte growth accelerating activity (Evaluation method A), 50 μl/well of each test compound solution, prepared by diluting with the culture medium to give a final concentration of 500 ng/ml, and the culture medium containing 20 ng/ml of mouse NGF (mouse derived, final concentration 10 ng/ml, commercialized by Chemicon International, Inc., CA, USA) (50 μl/well) were added to the precultured PC12-HS cells in each well, and then cultured for three days. Culture medium was removed on day 3 of culture, and cells were fixed by adding 100 μl/well of 10% by volume of glutaraldehyde and standing for 20 minutes at room temperature. As a negative control, PC12-HS cells, cultured for three days with culture medium, were fixed with glutaraldehyde similarly as above. Fixed cells were observed under a microscope to assess the neurite-outgrowth. The neurite-outgrowth rate (%) was determined by observing the cells using a microscope by adjusting the magnitude to give about 100 cells in one visual field, counting the number of cells having neurites twice or more in length of the cell body (major axis), dividing by the total number of cells in the same visual field, and multiplying by 100. Measurements were carried out at three points for each test compound. […] In this experiment, the neurite-outgrowth rate was 5% or less when NGF was added (final concentration 10 ng/ml) without the addition of the test compound.
The method was based on Experiment 1-1, except the concentrations of the test compounds were set to three doses of 40 nM, 200 nM and 1,000 nM for evaluation method A (neurocyte growth accelerating effect), and two doses of 200 nM and 1,000 nM for evaluation method B (neurite outgrowth promoting effect). Measurements were performed in triplicate for each concentration of each test compound in both evaluation methods A and B. The result of the evaluation method A was expressed as a cell proliferation rate (%) by determined a relative percentage (%) when the value of the negative control to which the test compound was not added, was regarded as 100%. […]

IC50 [1] | Compound | Action on PC12-HS growth acceleration (50 ng/ml) (PC12-HS cells [2]; 50 ng/ml, 3 days culture, class of cell proliferation rate vs negative control = 100%) | Action on PC12-HS neurite-outgrowth promotion (500 ng/ml) (PC12-HS cells [3]) | Cell proliferation rate (%) (PC12-HS cells [2]; 1.000 nM) | Cell proliferation rate (%) (PC12-HS cells [2]; 40 nM) | Cell proliferation rate (%) (PC12-HS cells [2]; 200 nM) | neurocyte growth acceleration activity (in words) (PC12-HS cells [2]) | Neurite-outgrowth rate (%) (PC12-HS cells [3]; 1.000 nM) | Neurite-outgrowth rate (%) (PC12-HS cells [3]; 200 nM) | neurite-outgrowth promoting activity (in words) (PC12-HS cells [3]; 200 and 1,000 nM, comment on Table 2)
≥ 10 mM | CCn1ccc(=O)c2ccccc21 [NKX-4076] | – | – | – | – | – | – | – | – | –
– | CN(C)c1ccc(C=Cc2oc3ccccc3[n+]2C)cc1.[I-] [NK-528] | ◯ (the relative value of 130% to 169% was judged to be equivalent to NK-4 (“circle”)) | ◯ (When the mean neurite-outgrowth rate was 25 to 44%, it was judged to be equivalent to the positive control NK-4 (“circle”)) | – | – | – | – | – | – | –
– | CCN1C(=CC(C)=Cc2sc3ccccc3[n+]2CCCS(=O)(=O)[O-])Sc2ccccc21 [NK-4781] | – | ⊚ (45% or more was judged to be more potent than NK-4 (“double circle”)) | 89.1% | 110.0% | 106.6% | almost no growth acceleration activity | 88.3% | 31.2% | stronger neurite-outgrowth promoting activity than NK-4
– | CC1(C)C(=CC=CC2=[N+](CCO)c3ccccc3C2(C)C)N(CCO)c2ccccc21.[Br-] [NK-1883] | – | – | 87.5% | 104.8% | 105.1% | almost no growth acceleration activity | 13.3% | 13.3% | –
